Data: US20030232101A1, “Topical formulations of resorcinols and cannibinoids and methods of use” (Immugen Pharmaceuticals, Inc., priority 2002, published 2003)
Entries after “also recorded” stand apart in the source; their conditions may differ. Read-outs that look alike come from different tables or passages of the source.

Columns and labels:
HIV-1 strain RoJo = test: PBMC time of addition assay (RT activity in supernatant at 6 days); format: cell-based; conditions: for IC50: Human immunodeficiency virus 1, PBMC
HIV-1 = test: HeLa CD4 LTR β-gal HIV-1 attachment assay (Experimental Example 1); format: cell-based; conditions: for IC50: Human immunodeficiency virus 1, HeLa; for inhibition of HIV attachment/entry: following a 24 h pre-incubation
[1] = system: peripheral blood mononuclear cells (PBMCs); test: PBMC cell viability in time of addition assay (MTS / Trypan Blue); format: cell-based, Human; conditions: read-out: TC50 (the source's name)
[2] = as above; format: cell-based, Human; conditions: human; treatment −4 h pre; read-out: TC50
HIV-1 (96USHIPS7 strain) = test: HIV attachment assay in PBMCs (cell-associated p24); format: cell-based
[3] = addition prior to infection, pre-treatment 0 h
[4] = addition prior to infection, pre-treatment 2 h
[5] = addition prior to infection, pre-treatment 4 h
[6] = addition prior to infection, pre-treatment 24 h

| Compound | IC50 (HIV-1 strain RoJo; 4 h, treatment −4 h pre) [µM] | IC50 (HIV-1 strain RoJo; 6 h, treatment 6 h post) [µM] | IC50 (HIV-1 strain RoJo; [3]) [µM] | IC50 (HIV-1 strain RoJo; [4]) [µM] | IC50 (HIV-1 strain RoJo; [5]) [µM] | IC50 (HIV-1 strain RoJo; [6]) [µM] | IC50 (HIV-1 strain RoJo; treatment at infection) [µM] | IC50 (HIV-1; Experiment 1, pretreat 0 h) [µM] | IC50 (HIV-1; Experiment 1, pretreat 4 h) [µM] | IC50 (HIV-1; Experiment 1, pretreat 24 h) [µM] | IC50 (HIV-1; Experiment 2, pretreat 0 h) [µM] | IC50 (HIV-1; Experiment 2, pretreat 4 h) [µM] | IC50 (HIV-1; Experiment 2, pretreat 24 h) [µM] | inhibition of HIV attachment/entry (HIV-1) | Comment: suppression of β-galactosidase activity (HIV-1; pretreat 24 h) | CC50 ([1]; treatment 6 h post) [µM] | CC50 ([1]; treatment at infection) [µM] | CC50 at 6 days [2] [µM] | % Control (HIV-1 (96USHIPS7 strain); 15 μM, time 0 h) [%] | pg p24 (HIV-1 (96USHIPS7 strain); 15 μM, time 0 h) [pg] | also measured |
| --- | --- | --- | --- | --- | --- | --- | --- | --- | --- | --- | --- | --- | --- | --- | --- | --- | --- | --- | --- | --- | --- |
| CC1=CCC2C(C1)c1c(O)cc(C(C)(C)CCCC(C)C)cc1OC2(C)C (centres unmarked) [IMG509, 3-Norpentyl-3-(1,1,5-trimethylhexyl)-Δ8-tetrahydrocannabinol] | 19.6 | 10 | 9.3 | 11 | 12.6 | 6.6 | 17.5 | > 50 | 21 | 11.5 | 28 | 36 | 3.5 | not | Suppression of β-galactosidase activity | > 100 | > 100 | > 100 | 83.6 | 321 | fold decrease in IC50 (HIV-1 strain RoJo; 24 h pretreatment): approximately 2 fold; β-galactosidase production relative to background (cells alone+compounds) (HIV-1; following 24 h exposure): suppressed β-galactosidase production below background; Comment: transient suppression lost at lower concentrations (HIV-1; pretreat 0 h): transient suppression of virus replication; also recorded: Transient suppression lost with at lower; % Control (HIV-1 (96USHIPS7 strain); 15 μM, time 2 h): 81.8%; pg p24 (HIV-1 (96USHIPS7 strain); 15 μM, time 2 h): 314 pg; % Control (HIV-1 (96USHIPS7 strain); 15 μM, time 4 h): 61.2%; pg p24 (HIV-1 (96USHIPS7 strain); 15 μM, time 4 h): 235 pg; % Control (HIV-1 (96USHIPS7 strain); 15 μM, time 24 h): 77.3%; pg p24 (HIV-1 (96USHIPS7 strain); 15 μM, time 24 h): 297 pg; inhibition of HIV cell-association (HIV-1 (96USHIPS7 strain); 4 h preincubation): significantly inhibit HIV cell-association |
| Cc1ccc2c(c1)-c1c(O)cc(C(C)(C)CCCC(C)C)cc1OC2(C)C [IMG511, 3-Norpentyl-3-(1,1,5-trimethylhexyl)cannabinol] | 15.2 | 9.3 | 6.6 | 9.4 | 11.7 | 33.2 | 16.9 | 25 | 9.5 | 2.5 | < 0.16 | 8.3 | 7.1 | consistent inhibition | Suppression of β-galactosidase activity | > 100 | > 100 | > 100 | 75.5 | 290 | fold increase in IC50 (HIV-1 strain RoJo; 24 h pretreatment): 5-fold increase in IC50; β-galactosidase production relative to background (cells alone+compounds) (HIV-1; at all times): suppressed β-galactosidase production below background; Comment: suppression of β-galactosidase activity (HIV-1; pretreat 0 h): Suppression of β-galactosidase activity; Comment: suppression of β-galactosidase activity (HIV-1; pretreat 4 h): Suppression of β-galactosidase activity,; Comment: transient suppression lost at lower concentrations (HIV-1; pretreat 4 h): Transient suppression lost with at lower; Comments: effect on HIV attachment (HIV-1 (96USHIPS7 strain); 15 μM, pretreatment 0, 2, 4, 24 h): No Significant effect; % Control (HIV-1 (96USHIPS7 strain); 15 μM, time 2 h): 85.4%; pg p24 (HIV-1 (96USHIPS7 strain); 15 μM, time 2 h): 328 pg; % Control (HIV-1 (96USHIPS7 strain); 15 μM, time 4 h): 76.6%; pg p24 (HIV-1 (96USHIPS7 strain); 15 μM, time 4 h): 294 pg; % Control (HIV-1 (96USHIPS7 strain); 15 μM, time 24 h): 91.7%; pg p24 (HIV-1 (96USHIPS7 strain); 15 μM, time 24 h): 352 pg |
